From patent publication US20230128252A1, “PHARMACEUTICAL COMPOSITIONS” (Shenzhen Pharmacin Co., Ltd., priority 2020, published 2023)
≈ marks a conversion by molar mass, not a printed value.

Experiments:
[1] = Skin permeability of clofazimine preparations (vertical Franz diffusion cells); assay type: in vitro ADME, NU/NU nude mice
[2] = tested on: chronic discoid lupus erythematosus; settings: human clinical study; cited from earlier work
[3] = Solubility of clofazimine in fatty acids; assay type: physicochemical; settings: fatty acid, 25 °C
[4] = Compatibility of clofazimine and excipients (60° C., 3 days, HPLC); assay type: physicochemical; settings: for Degradation total impurities: 60° C. for 3 days
Method: Clofazimine was dissolved into different excipients with different mass ratios, then the mixture was placed in the condition of 60° C. for 3 days. The total degradation impurities were measured by HPLC and summarized below in Table 25. The excipients were classified by the results as below.

CC(C)/N=c1\cc2n(-c3ccc(Cl)cc3)c3ccccc3nc-2cc1Nc1ccc(Cl)cc1 [Clofazimine, N,5-bis(4-chlorophenyl)-3-propan-2-ylimino phenazin-2-amine]
clofazimine content (Table 12, FIG. 3) ([1]; Gel, PEG 400 10 wt %): 1.6000 μg/cm^2 | clofazimine content (Table 12, FIG. 3) ([1]; Gel, Transcutol): 0.1894 μg/cm^2 | clofazimine content (Table 12, FIG. 3) ([1]; Gel, Tween 80 10 wt %): 0.9800 μg/cm^2 | clofazimine content (Table 12, FIG. 3) ([1]; Gel, labrasol 10 wt %): 0.8200 μg/cm^2 | clofazimine content (Table 12, FIG. 3) ([1]; Solvents (solution), PEG 400 99.9 wt %): 0.2700 μg/cm^2 | clofazimine content (Table 12, FIG. 3) ([1]; Solvents (solution), Transcutol): 0.0596 μg/cm^2 | clofazimine content (Table 12, FIG. 3) ([1]; Solvents (solution), Tween 80 99.9 wt %): 0.2500 μg/cm^2 | clofazimine content (Table 12, FIG. 3) ([1]; Solvents (solution), labrasol 99.9 wt %): 0.2600 μg/cm^2 | clofazimine content ([1]; gel: Carbomer 940 0.5, Transcutol 20, Lecithin 5 wt %, pH 7.0, clofazimine amount 0.01%): 0.0568 ug/cm^2 | clofazimine content ([1]; gel: Carbomer 940 0.5, Transcutol 20, Lecithin 5 wt %, pH 7.0, clofazimine amount 0.02%): 0.1971 ug/cm^2 | clofazimine content ([1]; gel: Carbomer 940 0.5, Transcutol 20, Lecithin 5 wt %, pH 7.0, clofazimine amount 0.05%): 0.5394 ug/cm^2 | clofazimine content ([1]; gel: Carbomer 940 0.5, Transcutol 20, Lecithin 5 wt %, pH 7.0, clofazimine amount 0.1%): 0.8014 ug/cm^2 | clofazimine content ([1]; gel: Carbomer 940 0.5, Transcutol 20, Lecithin 5 wt %, pH 7.0, clofazimine amount 0.2%): 0.7102 ug/cm^2 | clofazimine content ([1]; gel: Carbomer 940 0.5, Transcutol 20, Lecithin 5 wt %, pH 7.0, clofazimine amount 0.5%): 0.7512 ug/cm^2 | clofazimine content ([1]; gel: clofazimine 0.1, Carbomer 940 0.5, Transcutol 20, Lecithin 5 wt %, pH 6.0): 0.4246 ug/cm^2 | clofazimine content ([1]; gel: clofazimine 0.1, Carbomer 940 0.5, Transcutol 20, Lecithin 5 wt %, pH 7.0): 0.4146 ug/cm^2 | clofazimine content ([1]; gel: clofazimine 0.1, Carbomer 940 0.5, Transcutol 20, Lecithin 5 wt %, pH 8.0): 0.3463 ug/cm^2 | clofazimine content ([1]; gel: clofazimine 0.1, Carbomer 940 0.5, Transcutol 20, Lecithin 5 wt %, pH 9.0): 0.2970 ug/cm^2 | clofazimine content ([1]; gel: clofazimine 0.1, Carbomer 940 0.5, Transcutol 20, Lecithin 5 wt %, pH 9.5): 0.2463 ug/cm^2 | clofazimine content ([1]; gel: clofazimine 0.1, Carbomer 940 0.5, Transcutol 20 wt %, pH 7.0, Control (water instead of penetration enhancer)): 0.1331 ug/cm^2 | clofazimine content ([1]; gel: clofazimine 0.1, Carbomer 940 0.5, Transcutol 20 wt %, pH 7.0, lecithin 2%): 0.2272 ug/cm^2 | clofazimine content ([1]; gel: clofazimine 0.1, Carbomer 940 0.5, Transcutol 20 wt %, pH 7.0, lecithin 3%): 0.2745 ug/cm^2 | clofazimine content ([1]; gel: clofazimine 0.1, Carbomer 940 0.5, Transcutol 20 wt %, pH 7.0, lecithin 4%): 0.3026 ug/cm^2 | clofazimine content ([1]; gel: clofazimine 0.1, Carbomer 940 0.5, Transcutol 20 wt %, pH 7.0, lecithin 5%): 0.3578 ug/cm^2 | clofazimine content ([1]; gel: clofazimine 0.1, Carbomer 940 0.5, Transcutol 20 wt %, pH 7.0, lecithin 6%): 0.3335 ug/cm^2 | clofazimine content ([1]; gel: clofazimine 0.1, Carbomer 940 0.5, Transcutol 20 wt %, pH 7.0, lecithin 10%): 0.3968 ug/cm^2 | clofazimine content ([1]; gel: clofazimine 0.1, Carbomer 940 0.5, Transcutol 20 wt %, pH 7.0, lecithin 19%): 0.2989 ug/cm^2 | clofazimine content ([1]; gel: clofazimine 0.1, Carbomer 940 0.5, Transcutol 20 wt %, pH 7.0, penetration enhancer 4 wt %: DMSO): 0.1806 ug/cm^2 | clofazimine content ([1]; gel: clofazimine 0.1, Carbomer 940 0.5, Transcutol 20 wt %, pH 7.0, penetration enhancer 4 wt %: Ethanol): 0.2055 ug/cm^2 | clofazimine content ([1]; gel: clofazimine 0.1, Carbomer 940 0.5, Transcutol 20 wt %, pH 7.0, penetration enhancer 4 wt %: Lecithin): 0.9881 ug/cm^2 | clofazimine content ([1]; gel: clofazimine 0.1, Carbomer 940 0.5, Transcutol 20 wt %, pH 7.0, penetration enhancer 4 wt %: Octanol): 0.6230 ug/cm^2 | clofazimine content ([1]; gel: clofazimine 0.1, Carbomer 940 0.5, Transcutol 20 wt %, pH 7.0, penetration enhancer 4 wt %: Oleic acid): 0.2344 ug/cm^2 | clofazimine content ([1]; gel: clofazimine 0.1, Carbomer 940 0.5, Transcutol 20 wt %, pH 7.0, penetration enhancer 4 wt %: SDS (0.05%)): 0.1829 ug/cm^2 | clofazimine content ([1]; gel: clofazimine 0.1, Carbomer 940 0.5, Transcutol 20 wt %, pH 7.0, penetration enhancer 4 wt %: Tween 20): 0.1535 ug/cm^2 | clofazimine content ([1]; gel: clofazimine 0.1, Carbomer 940 0.5, Transcutol 20 wt %, pH 7.0, penetration enhancer 4 wt %: Tween 80): 0.2484 ug/cm^2 | clofazimine content ([1]; gel: clofazimine 0.1, Carbomer 940 0.5 wt %, pH 7.0, solvent 10 wt % PEG 400, 4 hours): 1.6000 ug/cm^2 | clofazimine content ([1]; gel: clofazimine 0.1, Carbomer 940 0.5 wt %, pH 7.0, solvent 10 wt % Transuctol, 4 hours): 0.1894 ug/cm^2 | clofazimine content ([1]; gel: clofazimine 0.1, Carbomer 940 0.5 wt %, pH 7.0, solvent 10 wt % Tween 80, 4 hours): 0.9800 ug/cm^2 | clofazimine content ([1]; gel: clofazimine 0.1, Carbomer 940 0.5 wt %, pH 7.0, solvent 10 wt % labrasol, 4 hours): 0.8200 ug/cm^2 | clofazimine content ([1]; gel: clofazimine 0.1, Transcutol 20, Lecithin 5 wt %, pH 7.0, Carbomer 940 amount 0.5%): 0.4871 ug/cm^2 | clofazimine content ([1]; gel: clofazimine 0.1, Transcutol 20, Lecithin 5 wt %, pH 7.0, Carbomer 940 amount 0.8%): 0.3054 ug/cm^2 | clofazimine content ([1]; gel: clofazimine 0.1, Transcutol 20, Lecithin 5 wt %, pH 7.0, Carbomer 940 amount 1.0%): 0.3205 ug/cm^2 | clofazimine content ([1]; inner skin, 4 hours, solution, clofazimine 100 mg in 99.9 g Ethanol): 0.5565 ug/cm^2 | clofazimine content ([1]; inner skin, 4 hours, solution, clofazimine 100 mg in 99.9 g KHS-15): 0.0660 ug/cm^2 | clofazimine content ([1]; inner skin, 4 hours, solution, clofazimine 100 mg in 99.9 g Laurocapram): 0.3593 ug/cm^2 | clofazimine content ([1]; inner skin, 4 hours, solution, clofazimine 100 mg in 99.9 g Oleic acid): 0.0577 ug/cm^2 | clofazimine content ([1]; inner skin, 4 hours, solution, clofazimine 100 mg in 99.9 g PEG 400): 0.1174 ug/cm^2 | clofazimine content ([1]; inner skin, 4 hours, solution, clofazimine 100 mg in 99.9 g Transuctol): 0.0596 ug/cm^2 | clofazimine content ([1]; inner skin, 4 hours, solution, clofazimine 100 mg in 99.9 g Tween 20): 0.0639 ug/cm^2 | clofazimine content ([1]; inner skin, 4 hours, solution, clofazimine 100 mg in 99.9 g Tween 80): 0.0660 ug/cm^2 | remission of chronic discoid lupus erythematosus [2]: a majority of patients showed remission | solubility ([3]; oil or lipid, Heptanoic acid): 78.3 mg/mL (≈ 165 mM) | solubility ([3]; oil or lipid, Hexanoic acid): 80.7 mg/mL (≈ 170 mM) | solubility ([3]; oil or lipid, Linoleic acid): 90.2 mg/mL (≈ 191 mM) | solubility ([3]; oil or lipid, Octanoic acid): 56.3 mg/mL (≈ 119 mM) | solubility ([3]; oil or lipid, Oleic acid): 106 mg/mL (≈ 223 mM) | solubility ([3]; organic solvent or mixture, Acetic acid): 30.2 mg/mL (≈ 63.8 mM) | solubility ([3]; organic solvent or mixture, Butyric acid): 49.2 mg/mL (≈ 104 mM) | solubility ([3]; organic solvent or mixture, Isovaleric acid): 58.6 mg/mL (≈ 124 mM) | solubility ([3]; organic solvent or mixture, Propionic acid): 28.2 mg/mL (≈ 59.7 mM) | chemical stability (hydrolysis, oxidation) [4]: easily hydrolyzed and oxidized | Degradation total impurities ([4]; Campmul MCM (1:100)): >1% | Degradation total impurities ([4]; Campmul MCM + water (1:100:800)): >1% | Degradation total impurities ([4]; Gelucire 44/14 (1:100)): >1% | Degradation total impurities ([4]; Oleic acid (1:50)): 0.5-1% | Degradation total impurities ([4]; Oleic acid + labrasol (1:50:100)): >1% | Degradation total impurities ([4]; PEG 400 (1:400)): >1% | Degradation total impurities ([4]; PEG 3350 (1:400)): 0-0.5% | Degradation total impurities ([4]; RH 40 (1:100)): 0-0.5% | Degradation total impurities ([4]; Stearyl alcohol (1:70)): 0-0.5% | Degradation total impurities ([4]; Tefose 63 (1:100)): >1% | Degradation total impurities ([4]; Vaseline (1:3000)): 0-0.5% | Degradation total impurities ([4]; glycerin (1:2500)): 0-0.5% | Degradation total impurities ([4]; labrasol (1:100)): 0.5-1% | Degradation total impurities ([4]; labrasol + carbomer (1:100:5)): 0.5-1% | Degradation total impurities ([4]; labrasol + water (1:100:800)): 0.5-1% | Degradation total impurities ([4]; liquid paraffin (1:1000)): 0-0.5% | Degradation total impurities ([4]; oleic acid + labrasol + water (1:50:100:800)): >1% | Degradation total impurities ([4]; propyl glycol (1:2500)): 0-0.5% | Degradation total impurities ([4]; transcutol + tween 80 (1:100:100)): >1% | Degradation total impurities ([4]; transcutol + water (1:100:800)): 0.5-1% | Degradation total impurities ([4]; trascutol (1:100)): >1% | Degradation total impurities ([4]; tween 80 (1:100)): >1% | Degradation total impurities ([4]; tween 80 + water (1:100:800)): >1% | chemical stability of clofazimine in lipid excipients ([4]; lipid excipients such as PEG 3350, stearyl alcohol, vaseline, and liquid paraffin): enhanced chemical stability
